Literature values in patent US5763435A, “Sulfate conjugates of ursodeoxycholic acid, and their beneficial use in inflammatory disorders” (priority 1995, dated 1998).

Columns and labels:
[1] = rat, in vivo; cited from earlier work
colonic epithelial cell = details: in vitro; cited from earlier work

SMILES | Metabolism to 3α,7α-disulfate, 6β-hydroxy 5β-cholanoic acid [1] | Effect on colonic epithelial cell proliferation (in words) (colonic epithelial cell)
C[C@H](CCC(=O)NCC(=O)O)[C@H]1CC[C@H]2[C@@H]3[C@H](OS(=O)(=O)O)C[C@@H]4C[C@H](OS(=O)(=O)O)CC[C@]4(C)[C@H]3CC[C@]12C [glycochenodeoxycholic acid disulfates] | 90% | 
C[C@H](CCC(=O)O)[C@H]1CC[C@H]2[C@@H]3CC[C@@H]4C[C@H](O)CC[C@]4(C)[C@H]3C[C@H](O)[C@]12C [deoxycholic, deoxycholic acid] |  | comitogenic
C[C@H](CCC(=O)O)[C@H]1CC[C@H]2[C@@H]3CC[C@@H]4C[C@H](O)CC[C@]4(C)[C@H]3CC[C@]12C [lithocholic acids, lithocholic acid] |  | comitogenic
C[C@H](CCC(=O)NCCS(=O)(=O)O)[C@H]1CC[C@H]2[C@@H]3[C@H](OS(=O)(=O)O)C[C@@H]4C[C@H](OS(=O)(=O)O)CC[C@]4(C)[C@H]3CC[C@]12C [taurochenodeoxycholic acid disulfates] | 90% | 
